Patent US20040029153A1, “Method for estimating metabolic function of xenobiotic and induction thereof” (priority 2000, published 2004)
Where two headings read alike, the source gives them in different places.

Experiments:
[1] = system: primary human hepatocytes; experiment: Ethoxycoumarin dealkylation and coumarin conjugation activities in primary human hepatocytes; type: in vitro ADME; details: HH-110 and HH-118; benz[a]anthracene 5 μmol/L, 3-methylcholanthrene 2 μmol/L; one day and night
Description: Lanford's medium (1 mL) containing 75 μmol/L of 7-ethoxycoumarin was added to each well after the culture medium was removed, and the plate was incubated for two hours in the CO2 incubator to allow reaction. Whole volume of each reaction was recovered and stored at −80° C. until measurement. The cells were washed twice with Lanford's medium, and maintained in the CO2 incubator again or directly used as a sample for another test. The stored reactions were thawed, and 50 μl of the reaction was analyzed by liquid chromatography, ethoxycoumarin dealkylation activity and glucuronate and sulfate conjugation activities were comprehensively estimated based on the production of 7-hydroxycoumarin, 7-hydroxycoumarin glucuronide and 7-hydroxycoumarin sulfate. Herein, 7-ethoxycoumarin is converted to 7-hydroxycoumarin after dealkylation, and then conjugated by glucuronate and sulfate.
The cells maintained under the conditions considered optimal in Examples 8 and 9 were continued to be added with 5 μmol/L of benz[a]anthracene or 2 μmol/L of 3-methylcholanthrene one day and night, and then the changes in ethoxycoumarin dealkylation activity was investigated. HH-110 and HH-118 cells were used.
Three samples per each condition i.e., control (Lane 1), adding of 3-methylcholanthrene (Lane 2) and benz[a]anthracene (Lane 3) which were measured independently, and the mean values are shown. […]

CYP1A = experiment: Induction of ethoxyresorfin dealkylation activity in primary human hepatocytes; type: in vitro ADME; details: HH-110
Description: After the culture medium was completely removed from the culture plate, Lanford's medium (1 mL) containing 8 μmol/L of 7-ethoxyresorfin and 10 μmol/L of dicumarol was added to each well, and the plate was incubated for 30 minutes in the CO2 incubator to allow reaction. Whole volume of each reaction was recovered and stored at −80° C. until measurement. The cells were washed twice with Lanford's medium, and maintained in the CO2 incubator again or directly used as a sample for another test.
The stored reactions were thawed, and accurately 75 μL of each reaction was removed and mixed with 0.1 mol/L of acetate-sodium acetate buffer (pH 4.4, 25 μL) containing 15 Fishman units of β-glucuronidase [EC 3.2.1.31] and 120 Roy units of sulfatase [EC 3.1.6.1], followed by conjugation reaction for two hours at 37° C. Ethanol (200 μL) was added to the reaction and subjected to centrifugation. The supernatant (200 μL) was transferred to a 96-well microtiter plate. Microplate reader (Labsystems, Fluoroscan Ascent) was used to measure the fluorescence intensity at the wavelength of 590 nm when excited with excitation light at the wavelength of 544 nm. The resorfin production figured out from the result was used to measure the ethoxyresorfin dealkylation activity.
The cells maintained under the conditions considered optimal in Examples 8 and 9 were continued to be added with 1 μmol/L of 3-methylcholanthrene for three days, and the changes in ethoxyresorfin dealkylation activity was investigated. HH-110 cells were used.
Primary human hepatocytes (HH-110) were continued to be loaded with 1 μmol/L of 3-methylcholanthrene for three days between days 4th to 7th post seeding (indicated by a crossbar in the figure), and these cells had been maintained further for five days again in the conventional Lanford's medium. During this period, measurement of ethoxyresorfin dealkylation activity was conducted at 8 times to investigate the changes in the activity. Three samples per condition were measured independently, and the mean values are shown. The standard deviations are indicated by error bar. […]

CYP1A1/2 = experiment: Western blotting of CYP1A protein in cryopreserved primary human hepatocytes; details: HH-110 and HH-118; 3-methylcholanthrene 2 μmol/L, benz[a]anthracene 5 μmol/L; one day and night; vs control
CYP3A mRNA = details: hepatocytes
CYP3A = experiment: Induction of testosterone hydroxylation activity in primary human hepatocytes
[2] = system: primary human hepatocytes; experiment: Effect of culture medium components on rifampicin induction of testosterone hydroxylation activity; type: cell-based
CYP3A4 = system: CYP3A4
Description: The cells in the suspension were seeded in a 12-well culture plate coated with collagen at the density of 6×10^5 cells/well, and the plate was incubated one day and night in the CO2 incubator. Subsequently, the culture medium containing 10% fetal bovine serum was removed, 1 ml of fresh serum-free Lanford's medium was added to each well, and the cells were maintained in the CO2 incubator. The inside of the CO2 incubator used in the present invention was maintained at 37° C. in an atmosphere of 5% […] saturated with vapor.
10 μl of the sample was electrophoresed on polyacrylamide gel, and blotted onto PVDF transfer membrane.

## Cc1ccc2cc3c(ccc4ccccc43)c3c2c1CC3 [3-methylcholanthrene]
[1]
  production of 7-hydroxycoumarin, 7-hydroxycoumarin glucronide and 7-hydroxycoumarin sulfate: increases
CYP1A; 1 μmol/L, added for three days
  ethoxyresorfin dealkylation activity during continued addition: gradually decreased
  time of maximum ethoxyresorfin dealkylation activity: one day after 3-methylcholanthrene was added
CYP1A; after three days of 1 μmol/L
  ethoxyresorfin dealkylation activity after addition was stopped: returned to their original state prior to the addition of the compounds in a day
CYP1A1/2
  CYP1A1/2 expression (western blotting): increased

## c1ccc2cc3c(ccc4ccccc43)cc2c1 [benz[a]anthracene]
[1]
  production of 7-hydroxycoumarin, 7-hydroxycoumarin glucronide and 7-hydroxycoumarin sulfate: increases
CYP1A1/2
  CYP1A1/2 expression (western blotting): increased

## Clc1ccccc1C(c1ccccc1)(c1ccccc1)n1ccnc1 [clotrimazole]
CYP3A mRNA
  CYP3A mRNA level, concentration-dependence of induction: increase of the mRNA level was observed
CYP3A; HH-110, different concentrations
  testosterone hydroxylation activity, concentration-dependence of induction: increase of the testosterone hydroxylation activity was not observed

## C[C@]12CCC(=O)C=C1CC[C@@H]1[C@@H]2[C@@H](O)C[C@@]2(C)[C@H]1CC[C@]2(O)C(=O)CO [hydrocortisone]
[2]; HH-110, hydrocortisone-free vs conventional Landford's medium
  effect of medium component on maintenance of testosterone hydroxylation activity: essential

## CCC1(c2ccccc2)C(=O)NC(=O)NC1=O [phenobarbital]
CYP3A mRNA
  CYP 3A mRNA (CYP3A/β-actin): Increases
CYP3A; HH-110, rifampicin 10 μmol/L, phenobarbital 1 mmol/L, loaded for four days
  day of maximum testosterone hydroxylation activity after addition: 4 days
CYP3A; five donors (HH-018, HH-022, HH-029, HH-110, HH-118), rifampicin 10 μmol/L, phenobarbital 1 mmol/L, four days
  testosterone hydroxylation activity: Increases
CYP3A4
  CYP3A4 expression (western blotting): not marked

## C[C@]12C=CC(=O)C=C1CC[C@@H]1[C@@H]2[C@@H](O)C[C@@]2(C)[C@H]1CC[C@]2(O)C(=O)CO [predonisolone]
[2]; HH-110, 1 μmol/L in medium, rifampicin 10 μmol/L for three days
  induction of testosterone hydroxylation activity with glucocorticoid instead of hydrocortisone in medium: can be observed

## cholera toxin
[2]
  effect of medium component on induction of testosterone hydroxylation activity: enhancing factors

B1: Prolactin: component of Landford's medium (protein, UniProt P01239 31-229, looked up)
Prolactin: TPVCPNGPGNCQVSLRDLFDRAVMVSHYIHDLSSEMFNEFDKRYAQGKGFITMALNSCHTSSLPTPEDKEQAQQTHHEVLMSLILGLLRSWNDPLYHLVTEVRGMKGAPDAILSRAIEIEEENKRLLEGMEMIFGQVIPGAKETEPYPVWSGLPSLQTKDEDARYSAFYNLLHCLRRDSSKIDTYLKLLNCRIIYNNNC
[2]; HH-110, component-free vs conventional Landford's medium, induction by rifampicin
  effect of medium component on induction of testosterone hydroxylation activity: enhancing factors
